According to patent US12077503B2, “Substituted cyclic amides and their use as herbicides” (FMC CORPORATION, priority 2015, dated 2024):

Columns and labels:
Assay type in all cases: in vivo
corn (Zea mays) [1] = assay: Test G Post-Emergence Protocol; settings: Zea mays, post-emergence, 312 h; for plant injury at 15.625 g/ha: 15.625 g ai/ha, evaluated after 13 days (100=total damage to plant; 0=no damage to plant), read-out: Corn damage rating; for plant injury at 62.5 g/ha: 62.5 g ai/ha, read-out: Corn damage rating (100=total damage to plant; 0=no damage to plant); for plant injury at 62.5 g/ha / plant injury at 250 g/ha: evaluated after 13 days; for plant injury at 250 g/ha: 250 g ai/ha, read-out: damage to plant, Corn (100=total damage to plant; 0=no damage to plant)
In short: (§1)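 Values are percent visual injury at 13 days after treatment (0 none, 100 total). Treatment was a post-emergence spray at 15.625, 62.5 or 250 g/ha on 8-day-old pot plants kept at 24/16 °C.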

[2] = test system: ivy-leaved morning glory (Ipomoea hederacea); assay: Test G Post-Emergence Protocol; settings: Ipomoea, post-emergence, 312 h; for pest or weed control at 15.625 g/ha: 15.625 g ai/ha, evaluated after 13 days (100=total damage to plant; 0=no damage to plant), read-out: Morningglory, Ivy-leaved damage rating; for pest or weed control at 62.5 g/ha: 62.5 g ai/ha, read-out: Morningglory, Ivy-leaved damage rating (100=total damage to plant; 0=no damage to plant); for pest or weed control at 62.5 g/ha / pest or weed control at 250 g/ha: evaluated after 13 days; for pest or weed control at 250 g/ha: 250 g ai/ha, read-out: damage to plant, Morningglory, Ivy-leaved (100=total damage to plant; 0=no damage to plant)
In short: as §1

[3] = test system: redroot pigweed (Amaranthus retroflexus); assay: Test G Post-Emergence Protocol; settings: Amaranthus retroflexus, post-emergence, 312 h; for pest or weed control at 15.625 g/ha: 15.625 g ai/ha, evaluated after 13 days (100=total damage to plant; 0=no damage to plant), read-out: Pigweed, Redroot damage rating; for pest or weed control at 62.5 g/ha: 62.5 g ai/ha, read-out: Pigweed, Redroot damage rating (100=total damage to plant; 0=no damage to plant); for pest or weed control at 62.5 g/ha / pest or weed control at 250 g/ha: evaluated after 13 days; for pest or weed control at 250 g/ha: 250 g ai/ha, read-out: damage to plant, Pigweed, Redroot (100=total damage to plant; 0=no damage to plant)
In short: as §1

[4] = test system: barnyardgrass (Echinochloa crus-galli); assay: Test G Post-Emergence Protocol; settings: Echinochloa crus-galli, post-emergence, 312 h; for pest or weed control at 15.625 g/ha: 15.625 g ai/ha, evaluated after 13 days (100=total damage to plant; 0=no damage to plant), read-out: Barnyardgrass damage rating; for pest or weed control at 62.5 g/ha: 62.5 g ai/ha, read-out: Barnyardgrass damage rating (100=total damage to plant; 0=no damage to plant); for pest or weed control at 62.5 g/ha / pest or weed control at 250 g/ha: evaluated after 13 days; for pest or weed control at 250 g/ha: 250 g ai/ha, read-out: damage to plant, Barnyardgrass (100=total damage to plant; 0=no damage to plant)
In short: as §1

[5] = test system: giant foxtail (Setaria faberi); assay: Test G Post-Emergence Protocol; settings: Setaria faberi, post-emergence, 312 h; for pest or weed control at 15.625 g/ha: 15.625 g ai/ha, evaluated after 13 days (100=total damage to plant; 0=no damage to plant), read-out: Foxtail, Giant damage rating; for pest or weed control at 62.5 g/ha: 62.5 g ai/ha, read-out: Foxtail, Giant damage rating (100=total damage to plant; 0=no damage to plant); for pest or weed control at 62.5 g/ha / pest or weed control at 250 g/ha: evaluated after 13 days; for pest or weed control at 250 g/ha: 250 g ai/ha, read-out: damage to plant, Foxtail, Giant (100=total damage to plant; 0=no damage to plant)
In short: as §1

[6] = test system: velvetleaf (Abutilon theophrasti); assay: Test G Post-Emergence Protocol; settings: Abutilon theophrasti, post-emergence, 312 h; for pest or weed control at 15.625 g/ha: 15.625 g ai/ha, evaluated after 13 days (100=total damage to plant; 0=no damage to plant), read-out: Velvetleaf damage rating; for pest or weed control at 62.5 g/ha: 62.5 g ai/ha, read-out: Velvetleaf damage rating (100=total damage to plant; 0=no damage to plant); for pest or weed control at 62.5 g/ha / pest or weed control at 250 g/ha: evaluated after 13 days; for pest or weed control at 250 g/ha: 250 g ai/ha, read-out: damage to plant, Velvetleaf (100=total damage to plant; 0=no damage to plant)
In short: as §1

corn (Zea mays) [7] = assay: Test G Pre-Emergence Protocol; settings: Zea mays, pre-emergence, 312 h, evaluated after 13 days; for plant injury at 15.625 g/ha: 15.625 g ai/ha; for plant injury at 15.625 g/ha / plant injury at 250 g/ha: read-out: Corn damage rating (100=total damage to plant; 0=no damage to plant); for plant injury at 62.5 g/ha: 62.5 g ai/ha, 100=total damage to plant, 0=no damage to plant, read-out: plant damage rating, Corn; for plant injury at 250 g/ha: 250 g ai/ha
In short: (§2)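 Scores are visual damage ratings from 0 (no damage) to 100 (total plant kill), taken 13 days after treatment. Compound was sprayed one day post-sowing at 15.625, 62.5 or 250 g/ha in 50:50 acetone/water with 0.5% Tween 20.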

[8] = test system: ivy-leaved morning glory (Ipomoea hederacea); assay: Test G Pre-Emergence Protocol; settings: Ipomoea, pre-emergence, 312 h, evaluated after 13 days; for pest or weed control at 15.625 g/ha: 15.625 g ai/ha, read-out: Morning-glory, Ivy-leaved damage rating (100=total damage to plant; 0=no damage to plant); for pest or weed control at 62.5 g/ha: 62.5 g ai/ha, 100=total damage to plant, 0=no damage to plant, read-out: plant damage rating, Morningglory, Ivy-leaved; for pest or weed control at 250 g/ha: 250 g ai/ha, read-out: Morningglory, Ivy-leaved damage rating (100=total damage to plant; 0=no damage to plant)
In short: as §2

[9] = test system: redroot pigweed (Amaranthus retroflexus); assay: Test G Pre-Emergence Protocol; settings: Amaranthus retroflexus, pre-emergence, 312 h, evaluated after 13 days; for pest or weed control at 15.625 g/ha: 15.625 g ai/ha; for pest or weed control at 15.625 g/ha / pest or weed control at 250 g/ha: read-out: Pigweed, Redroot damage rating (100=total damage to plant; 0=no damage to plant); for pest or weed control at 62.5 g/ha: 62.5 g ai/ha, 100=total damage to plant, 0=no damage to plant, read-out: plant damage rating, Pigweed, Redroot; for pest or weed control at 250 g/ha: 250 g ai/ha
In short: as §2

[10] = test system: barnyardgrass (Echinochloa crus-galli); assay: Test G Pre-Emergence Protocol; settings: Echinochloa crus-galli, pre-emergence, 312 h, evaluated after 13 days; for pest or weed control at 15.625 g/ha: 15.625 g ai/ha, read-out: Barnyard grass damage rating (100=total damage to plant; 0=no damage to plant); for pest or weed control at 62.5 g/ha: 62.5 g ai/ha, 100=total damage to plant, 0=no damage to plant, read-out: plant damage rating, Barnyardgrass; for pest or weed control at 250 g/ha: 250 g ai/ha, read-out: Barnyardgrass damage rating (100=total damage to plant; 0=no damage to plant)
In short: as §2

[11] = test system: giant foxtail (Setaria faberi); assay: Test G Pre-Emergence Protocol; settings: Setaria faberi, pre-emergence, 312 h, evaluated after 13 days; for pest or weed control at 15.625 g/ha: 15.625 g ai/ha; for pest or weed control at 15.625 g/ha / pest or weed control at 250 g/ha: read-out: Foxtail, Giant damage rating (100=total damage to plant; 0=no damage to plant); for pest or weed control at 62.5 g/ha: 62.5 g ai/ha, 100=total damage to plant, 0=no damage to plant, read-out: plant damage rating, Foxtail, Giant; for pest or weed control at 250 g/ha: 250 g ai/ha
In short: as §2

[12] = test system: velvetleaf (Abutilon theophrasti); assay: Test G Pre-Emergence Protocol; settings: Abutilon theophrasti, pre-emergence, 312 h, evaluated after 13 days; for pest or weed control at 15.625 g/ha: 15.625 g ai/ha; for pest or weed control at 15.625 g/ha / pest or weed control at 250 g/ha: read-out: Velvetleaf damage rating (100=total damage to plant; 0=no damage to plant); for pest or weed control at 62.5 g/ha: 62.5 g ai/ha, 100=total damage to plant, 0=no damage to plant, read-out: plant damage rating, Velvetleaf; for pest or weed control at 250 g/ha: 250 g ai/ha
In short: as §2

SMILES	plant injury at 15.625 g/ha (corn (Zea mays) [1]) [%]	plant injury at 62.5 g/ha (corn (Zea mays) [1]) [%]	plant injury at 250 g/ha (corn (Zea mays) [1]) [%]	pest or weed control at 15.625 g/ha [2] [%]	pest or weed control at 62.5 g/ha [2] [%]	pest or weed control at 250 g/ha [2] [%]	pest or weed control at 15.625 g/ha [3] [%]	pest or weed control at 62.5 g/ha [3] [%]	pest or weed control at 250 g/ha [3] [%]	pest or weed control at 15.625 g/ha [4] [%]	pest or weed control at 62.5 g/ha [4] [%]	pest or weed control at 250 g/ha [4] [%]	pest or weed control at 15.625 g/ha [5] [%]	pest or weed control at 62.5 g/ha [5] [%]	pest or weed control at 250 g/ha [5] [%]	pest or weed control at 15.625 g/ha [6] [%]	pest or weed control at 62.5 g/ha [6] [%]	pest or weed control at 250 g/ha [6] [%]	plant injury at 15.625 g/ha (corn (Zea mays) [7]) [%]	plant injury at 62.5 g/ha (corn (Zea mays) [7]) [%]	further results
Cc1nnc(NC(=O)[C@@H]2C(=O)N(C)C[C@H]2c2ccc(C(F)(F)F)cc2)s1 (racemic) [Compound 1559]	0	0	0	0	0	0	0	0	0	0	0	0	0	0	0	0	0	0	0	0	plant injury at 250 g/ha (corn (Zea mays) [7]): 0%; pest or weed control at 15.625 g/ha [8]: 0%; pest or weed control at 62.5 g/ha [8]: 0%; pest or weed control at 250 g/ha [8]: 0%; pest or weed control at 15.625 g/ha [9]: 0%; pest or weed control at 62.5 g/ha [9]: 0%; pest or weed control at 250 g/ha [9]: 0%; pest or weed control at 15.625 g/ha [10]: 0%; pest or weed control at 62.5 g/ha [10]: 0%; pest or weed control at 250 g/ha [10]: 0%; pest or weed control at 15.625 g/ha [11]: 0%; pest or weed control at 62.5 g/ha [11]: 0%; pest or weed control at 250 g/ha [11]: 0%; pest or weed control at 15.625 g/ha [12]: 0%; pest or weed control at 62.5 g/ha [12]: 0%; pest or weed control at 250 g/ha [12]: 0%
Cc1cnc(NC(=O)[C@@H]2C(=O)N(C)C[C@H]2c2ccc(C(F)(F)F)cc2)s1 (racemic) [Compound 1570]	0	0	0	0	0	10	0	0	0	0	0	10	0	0	20	0	0	0	0	0	plant injury at 250 g/ha (corn (Zea mays) [7]): 0%; pest or weed control at 15.625 g/ha [8]: 0%; pest or weed control at 62.5 g/ha [8]: 0%; pest or weed control at 250 g/ha [8]: 0%; pest or weed control at 15.625 g/ha [9]: 0%; pest or weed control at 62.5 g/ha [9]: 0%; pest or weed control at 250 g/ha [9]: 0%; pest or weed control at 15.625 g/ha [10]: 0%; pest or weed control at 62.5 g/ha [10]: 0%; pest or weed control at 250 g/ha [10]: 0%; pest or weed control at 15.625 g/ha [11]: 0%; pest or weed control at 62.5 g/ha [11]: 0%; pest or weed control at 250 g/ha [11]: 0%; pest or weed control at 15.625 g/ha [12]: 0%; pest or weed control at 62.5 g/ha [12]: 0%; pest or weed control at 250 g/ha [12]: 0%
